These results are taken from US20040247607A1, “Use of surfactants to stabilize oocysts” (priority 1999, published 2004).

For this assay, the system named is oocysts. Put plainly: Evaluation of naturally derived surfactants for decreasing and preventing oocyst aggregation. From the text:
In one aspect, the present invention provides a method for evaluating the ability of a surfactant to prevent aggregation of oocysts, sporocysts, and/or sporozoites. The method comprises adding a surfactant to a composition that comprises oocysts, sporocysts, sporozoites, or any combination thereof, at a concentration sufficient to prevent aggregation of the oocysts, sporocysts, and/or sporozoites (i.e. a test concentration). The resulting composition is then agitated, for example, by shaking manually or via an automatic shaker. As previously described, agitating the composition exposes the oocysts, sporocysts, and/or sporozoites to air or other gases, and promotes aggregation. After agitation, the composition is evaluated to determine whether any aggregation has occurred. Preferably, evaluation occurs by visually observing the composition for the presence of aggregated oocysts, sporocysts, and/or sporozoites. […]
In another aspect, the present invention provides a method for evaluating the ability of a surfactant to reduce oocyst, sporocyst, and/or sporozoite aggregation. […] Upon addition of the surfactant, the resulting composition is agitated, as previously described, and then evaluated to determine whether the aggregation has been reduced or eliminated entirely by addition of the surfactant. […]

On to casein, for which the “decreasing and preventing aggregation of oocysts” value is on record as “effective”. For serum albumin the value was “effective”.
